What all share (assay type): in vivo
The subject of one assay is H22 tumor cell. The assay is described as follows: Tumor growth inhibition, H22 tumor in mice. Conditions: 12 mg/kg i.p., four injections; 15th day after inoculation. As for the experimental part:
Cisplatin implant prepared according to Example 5 was used in this study. Ascites fluid was taken from d7 H22 passage mice under sterile conditions, and the ascites fluid was diluted with normal saline to prepare tumor cell suspension at a concentration of 1.0×10^7 cells/ml. Each mouse received a subcutaneous injection of 0.2 ml tumor cell suspension at the right armpit (number of inoculated cells: 2×10^6). The mice were randomized into 6 groups the next day after inoculation, cisplatin implant or excipient control was implanted near the tumor at the seventh day after inoculation. The positive control group received an intraperitoneal injection of cisplatin the next day after inoculation, and four injections in total at an interval of twice a week. The negative control group received an intraperitoneal injection of normal saline the next day after inoculation, and four injections in total at an interval of twice a week. The mice were sacrificed at the 15th day after inoculation, and the tumor mass were peeled and weighted. Tumor growth inhibition rate was calculated using the following equation: […]

The test system of assay [1] is Pancreatic cancer cell line PC3. The assay is described as follows: Tumor size, pancreatic cancer PC3 in nude mice. Conditions: Group B, i.v. 10 mg/kg. As for the experimental part:
Fluorouracil implant composition prepared according to Example 2 was tested for its efficacy on pancreatic cancer. Pancreatic cancer cell line PC3 was cultured and inoculated subcutaneously to 70 nude mice at the right armpit at the dose of 2×10^6 cells per inoculation. Tumor grew to the size of about 4 mm×4 mm×4 mm 4 weeks after the implant. 60 nude mice having tumors of similar sizes were selected and randomized into 5 groups with 12 mice in each group: Group A was administered intravenously through the angular vein with normal saline at the dose of 0.1 ml per mice; Group B was administered intravenously through the angular vein with 0.1 ml fluorouracil solution in normal saline at the dose of 10 mg/kg; Group C was implanted with blank matrix; Group D was implanted with fluorouracil implant composition into the pancreatic tumor mass at the dose of 4 mg/kg; and Group E was implanted with fluorouracil implant composition into the pancreatic tumor mass at the dose of 1 mg/kg. The size of the tumor mass was measured before and after treatment.

A further assay deals with SGC-7901 tumor. The assay is described as follows: Tumor growth inhibition, SGC-7901 tumor in nude mice. As to conditions: 1.6 mg ip, four injections; 21st day after inoculation. As for the experimental part: Fluorouracil implant prepared according to Example 2 were used in this study. SGC-7901 tumor tissues at vigorous growth stage were obtained and cut into pieces of about 1.5 mm^3. The tumor tissue pieces were inoculated subcutaneously to the right armpit of nude mice, under sterile conditions. The mice were randomized into 6 groups at the sixth day after inoculation. Three groups were treated with different doses of fluorouracil implant prepared according to Example 2. Another group was treated with excipient at the sixth day after noculation. The fluorouracil implant or excipient was implanted subcutaneously near the tumor. The positive group received four intraperitoneal injections of fluorouracil in total at an interval of twice a week. The negative control group received four intraperitoneal injections of normal saline in total at an interval of twice a week. The mice were sacrificed at the 21st day after inoculation, and the tumor mass were peeled and weighed. The tumor growth inhibition rate was calculated using the following equation: […]

The record followed here is patent US10335370B2, “Controlled release composition” (priority 2008, dated 2019).

As to `N.N.[Cl][Pt][Cl]` [cisplatin], in the assay with H22 tumor cell, the “Tumor growth inhibition rate (%)” value came out at 19.68% and the “Tumor weight X ± SD” value is 2.98 ± 1.14 g.

Consider `O=c1[nH]cc(F)c(=O)[nH]1` [fluorouracil], for which the tumor size in assay [1] (3rd day) came out at 72.3 mm^3; in assay [1] (6th day) it was 96.62 ± 20.5 mm^3; in assay [1] (10th day), 107.3 ± 20.9 mm^3; in assay [1] (14th day) it was 121.6 ± 14.3 mm^3; in assay [1] (Before treatment), 61.5 ± 8.7 mm^3. Moreover, the “Tumor growth inhibition rate (%)” value in the assay with SGC-7901 tumor is 75.76%. For the same compound, the “Tumor weight X ± SD” value with SGC-7901 tumor is listed as 0.71 ± 0.42 g.
